Test results reported in DBAASP.
≈ marks a conversion by molar mass, not a printed value. Values belong to the molecule of their own block, whether it stands above or below them.

What was measured:
Assay in all cases: ≥ marks a high value that may be exact or a test limit, other limits are often not marked, values filed in µg/mL are converted to µM
[1] = test system: Staphylococcus aureus II ATCC 6538P
[2] = test system: Enterococcus faecalis ATCC 19433
[3] = test system: Enterobacter cloacae ATCC 49141
[4] = test system: Acinetobacter baumannii ATCC 19606
Escherichia coli D21 = test system: Escherichia coli D21
[5] = test system: Escherichia coli ATCC 25922
[6] = test system: Pseudomonas aeruginosa ATCC 27853
Botrytis cinerea = test system: Botrytis cinerea
[7] = test system: Xanthomonas vesicatoria DSM 50861
[8] = test system: Pectobacterium carotovorum subsp. carotovorum DSM 30168
Cladosporium herbarum = test system: Cladosporium herbarum
[9] = test system: Pseudomonas corrugata DSM 7228
[10] = test system: Pseudomonas syringae pv. syringae DSM 10604
Alternaria alternata = test system: Alternaria alternata
[11] = test system: Pseudomonas syringae pv. tomato DC3000
[12] = test system: Clavibacter michiganensis subsp. michiganensis DSM 46294
[13] = test system: Pseudomonas aeruginosa ATCC 10419
[14] = test system: Enterococcus faecalis ATCC 29212
[15] = test system: Bacillus subtilis ATCC 11060
Escherichia coli 44102 = test system: Escherichia coli 44102
[16] = test system: Salmonella enterica subsp. enterica serovar Typhimurium ATCC 14028
[17] = test system: Staphylococcus aureus ATCC 25923
Escherichia coli 078 = test system: Escherichia coli 078
[18] = test system: Pseudomonas aeruginosa ATCC 21630
Escherichia coli K88 = test system: Escherichia coli K88
[19] = test system: Salmonella enterica subsp. enterica serovar Typhimurium C77-31
[20] = test system: Salmonella enterica subsp. enterica serovar Pullorum C79-13
[21] = test system: Pseudomonas aeruginosa ATCC 21625
[22] = test system: Staphylococcus epidermidis ATCC 12228
Escherichia coli UB1005 = test system: Escherichia coli UB1005
Escherichia coli ER2566 = test system: Escherichia coli ER2566
[23] = test system: Staphylococcus aureus ATCC 9144
Escherichia coli HB101 = test system: Escherichia coli HB101
[24] = test system: Corynebacterium glutamicum ATCC 13032

- MIC [1]: ≥ 100 µM
- MIC [2]: ≥ 100 µM
- MIC [3]: ≥ 100 µM
- MIC [4]: > 100 µM
- MIC (Escherichia coli D21): ≥ 100 µM
- MIC [5]: > 100 µM
- MIC [6]: 100 µM (≈ 182 µg/mL)
SMILES: CC(C)C[C@H](NC(=O)[C@H](Cc1cnc[nH]1)NC(=O)[C@H](Cc1cnc[nH]1)NC(=O)[C@H](CC(C)C)NC(=O)[C@H](CC(C)C)NC(=O)[C@H](Cc1cnc[nH]1)NC(=O)[C@H](Cc1cnc[nH]1)NC(=O)[C@H](CC(C)C)NC(=O)[C@H](CC(C)C)NC(=O)[C@H](Cc1cnc[nH]1)NC(=O)[C@H](Cc1cnc[nH]1)NC(=O)[C@H](CC(C)C)NC(=O)[C@H](C)NC(=O)[C@H](CC(=O)O)NC(=O)[C@@H](N)CC(=O)O)C(=O)O [DDALHHLLHHLLHHL]

- MIC (Botrytis cinerea): ≥ 73.4 µM
- MIC [7]: 29.4 µM (≈ 40 µg/mL)
- MIC [8]: 29.4 µM (≈ 40 µg/mL)
- MIC (Cladosporium herbarum): 14.7 µM (≈ 20 µg/mL)
- MIC [9]: 7.34 µM (≈ 9.99 µg/mL)
- MIC [10]: 29.4 µM (≈ 40 µg/mL)
- MIC (Alternaria alternata): ≥ 73.4 µM
- MIC [11]: 3.67 µM (≈ 5 µg/mL)
- MIC [12]: 29.4 µM (≈ 40 µg/mL)
SMILES: CC(C)C[C@H](NC(=O)[C@H](CCCCN)NC(=O)[C@H](Cc1cnc[nH]1)NC(=O)[C@H](CCCCN)NC(=O)[C@H](CC(C)C)NC(=O)[C@H](C)NC(=O)[C@H](CCCCN)NC(=O)[C@H](C)NC(=O)[C@H](CC(C)C)NC(=O)[C@H](C)NC(=O)[C@H](CCCN=C(N)N)NC(=O)[C@@H](N)CC(C)C)C(N)=O [LRALAKALKHKL]

- MIC [13]: 16 µM (≈ 36.8 µg/mL)
- MIC [14]: 4 µM (≈ 9.2 µg/mL)
- MIC [15]: 8 µM (≈ 18.4 µg/mL)
- MIC (Escherichia coli 44102): 8 µM (≈ 18.4 µg/mL)
- MIC [16]: 8 µM (≈ 18.4 µg/mL)
- MIC [17]: 32 µM (≈ 73.6 µg/mL)
- MIC (Escherichia coli 078): 4 µM (≈ 9.2 µg/mL)
- MIC [18]: 16 µM (≈ 36.8 µg/mL)
- MIC (Escherichia coli K88): 4 µM (≈ 9.2 µg/mL)
- MIC [19]: 8 µM
- MIC [20]: ≥ 128 µM
- MIC [21]: ≥ 32 µM
- MIC [22]: 8 µM (≈ 18.4 µg/mL)
- MIC (Escherichia coli UB1005): 4 µM (≈ 9.2 µg/mL)
- MIC (Escherichia coli ER2566): 8 µM (≈ 18.4 µg/mL)
- MIC [6]: > 128 µM
SMILES: CC[C@H](C)[C@H](NC(=O)[C@H](CCCCN)NC(=O)[C@H](CCCCN)NC(=O)[C@H](CC(C)C)NC(=O)[C@H](CCCN=C(N)N)NC(=O)[C@H](Cc1c[nH]c2ccccc12)NC(=O)[C@H](CCCN=C(N)N)NC(=O)[C@@H](NC(=O)[C@H](CCCCN)NC(=O)[C@H](Cc1c[nH]c2ccccc12)NC(=O)[C@H](CCCN=C(N)N)NC(=O)[C@H](CC(C)C)NC(=O)[C@H](CCCN=C(N)N)NC(=O)[C@H](CCCN=C(N)N)NC(=O)[C@H](Cc1ccccc1)NC(=O)[C@@H](N)CCCN=C(N)N)[C@@H](C)O)C(N)=O [RFRRLRWKTRWRLKKI]

- MIC [23]: ≥ 100 µM
- MIC (Escherichia coli HB101): 12.5 µM (≈ 31.2 µg/mL)
- MIC [5]: 35.4 µM (≈ 88.4 µg/mL)
- MIC [6]: 100 µM (≈ 250 µg/mL)
- MIC [24]: 3.1 µM (≈ 7.75 µg/mL)
SMILES: CC[C@H](C)[C@H](NC(=O)[C@@H]1CCCN1C(=O)[C@H](CCCCN)NC(=O)[C@@H]1CCCN1C(=O)[C@H](CCCN=C(N)N)NC(=O)CNC(=O)[C@@H]1CCCN1C(=O)[C@H](Cc1ccccc1)NC(=O)[C@@H]1CCCN1C(=O)[C@H](CCCN=C(N)N)NC(=O)[C@@H]1CCCN1C(=O)[C@H](CCCN=C(N)N)NC(=O)CNC(=O)[C@@H]1CCCN1C(=O)[C@H](CO)NC(=O)[C@@H]1CCCN1C(=O)[C@@H](N)Cc1c[nH]c2ccccc12)C(=O)N[C@@H](Cc1ccccc1)C(=O)N[C@@H](CCCN=C(N)N)C(=O)N1CCC[C@H]1C(=O)N[C@@H](CCCN=C(N)N)C(=O)O [WPSPGRPRPFPGRPKPIFRPR]
